Measurements: US20230416653A1, “ANTIMICROBIAL CLEANING COMPOSITIONS CONTAINING POLYURETHANE SALTED WITH BIS-BIGUANIDE FREE BASE” (Lubrizol Advanced Materials, Inc., priority 2020, published 2023)

Tested on: Aspergillus brasiliensis
Experiment: Antimicrobial activity on ceramic tiles, visual evaluation of fungal growth
Assay type: cell-based
Conditions: 10 = full fungal growth coverage, 0 = complete absence of fungal growth; tiles rinsed with 0.1 wt. % SLS; incubated 7 days at 25° C.
Experimental: A 2 wt. % aqueous dispersion of Polymer 1 salted with 2 wt. % chlorhexidine free base was assayed for antimicrobial activity on ceramic tiles. Control formulations containing Polymer 2 (no acid groups) 2 wt. % aqueous dispersion combined with 2 wt. % chlorhexidine gluconate, chlorhexidine (1 wt. % active material in sterilized deionized water) and benzalkonium chloride (1 wt. % active material in sterilized deionized water) were prepared for comparison. The tiles (Homebase Gloss Mini-Metro wall tiles measuring 7.5 cm×15 cm×0.6 cm thick) were sprayed with the dispersion of the salted Polymer 1 and the control formulations. The treated tiles were dried overnight in a biological control cabinet (Nuaire model no. NU 4005) at 20° C. and 45% RH. The dried tiles were removed from the biological control cabinet and each tile was rinsed with 400 ml of a sterile solution of 0.1 wt. % sodium laurel sulfate in deionized water. A spore suspension of Aspergillus brasiliensis cultured on malt extract agar was prepared in sterilized deionized water (concentration: 1×10^8 cfu/ml) and applied to each tile with a handheld spray bottle (nozzle set on spray position). The treated tiles were placed in the biological cabinet at 20° C. and 45% RH and dried for 30 mins. […] After incubating for 7 days the tiles were removed and visually evaluated for fugal growth.

Compound | Fungal Coverage Rating (average of 10 treated tiles)
benzalkonium chloride [Control (benzalkonium chloride)] | 6
N=C(NCCCCCCNC(=N)NC(=N)Nc1ccc(Cl)cc1)NC(=N)Nc1ccc(Cl)cc1 [Control (chlorhexidine), chlorhexidine] | 5
